Holding throughout (format): in vivo
Test [1] concerns Veronica persica. Description: Post-emergence herbicidal action against harmful plants. The settings on record: 504 h, read-out: Herbicidal action against VERPE. The source says:
(§1) The abbreviations used in the tables below denote: • ABUTH Abutilon theophrasti • AMARE Amaranthus retroflexus • ECHCG Echinochloa crus galli • PHBPU Phartoitis purpureum • STEME Stellaria media • ALOMY Alopecurus myosuroides • AVEFA Avena fatua • MATIN Matricaria inodora • POLCO Fallopia convolvulus • VERPE Veronica persica 1. Pre-emergence Herbicidal Action Against Harmful Plants Seeds of monocotyledonous and dicotyledonous weed and crop plants are placed in sandy loam in wood-fibre pots, covered with soil and cultivated in a greenhouse under good growth conditions. 2 to 3 weeks after sowing, the test plants are treated at the one-leaf stage. The compounds according to the invention, formulated in the form of wettable powders (WP) or as emulsion concentrates (EC), are then sprayed as aqueous suspension or emulsion at a water application rate of 600 to 800 I/ha (converted) with the addition of 0.2% of wetting agent onto the green parts of the plants. After the test plants have been kept in the greenhouse under optimum growth conditions for about 3 weeks, the activity of the preparations is rated visually in comparison to untreated controls (herbicidal activity in percent (%): 100% activity=the plants have died, 0% activity=control plants, —=not tested).

Test [2] has as its system Abutilon theophrasti. The test is described as above. As to conditions: 504 h, dosage 80 g/ha, visual rating after about 3 weeks (Table D), read-out: Herbicidal action against ABUTH.
Excerpt: as §1

Test [3] relates to Echinochloa crus galli. The description is as above. As to conditions: 504 h, dosage 80 g/ha, read-out: Herbicidal action against ECHCG.
Excerpt: as §1

Test [4] concerns Phartoitis purpureum. Described as above. As to conditions: 504 h; for pest or weed control at 80 g/ha: dosage 80 g/ha.
Excerpt: as §1

For test [5], the system named is Amaranthus retroflexus. The test is described as above. The settings on record: 504 h, read-out: Herbicidal action against AMARE.
Excerpt: as §1

For test [6], the system named is Fallopia convolvulus. The test is described as above. As to conditions: 504 h, dosage 80 g/ha, read-out: Herbicidal action against POLCO.
Excerpt: as §1

For test [7], the system named is Stellaria media. The description is as above. The settings on record: 504 h, read-out: Herbicidal action against STEME.
Excerpt: as §1

In test [8] the test system is Matricaria inodora. The test is described as above. The settings on record: Tripleurospermum inodorum, 504 h, read-out: Herbicidal action against MATIN; for pest or weed control at 80 g/ha: dosage 80 g/ha.
Excerpt: as §1

The subject of test [9] is Avena fatua. Description: Pre-emergence herbicidal action against harmful plants. The settings on record: dosage 320 g/ha, visual assessment after 3 weeks (Table A). The source says: (§2) The abbreviations used in the tables below denote: • ABUTH Abutilon theophrasti • AMARE Amaranthus retroflexus • ECHCG Echinochloa crus galli • PHBPU Phartoitis purpureum • STEME Stellaria media • ALOMY Alopecurus myosuroides • AVEFA Avena fatua • MATIN Matricaria inodora • POLCO Fallopia convolvulus • VERPE Veronica persica 1. Pre-emergence Herbicidal Action Against Harmful Plants Seeds of monocotyledonous and dicotyledonous weed plants and crop plants are placed in wood-fibre pots in sandy loam and covered with soil. The compounds according to the invention and the compounds known from the prior art, formulated in the form of wettable powders (WP) or as emulsion concentrates (EC), are then applied as aqueous suspension or emulsion at a water application rate of 600 to 800 I/ha (converted) with the addition of 0.2% of wetting agent to the surface of the covering soil. After the treatment, the pots are placed in a greenhouse and kept under good growth conditions for the test plants. The visual assessment of the damage to the test plants is carried out after a trial period of 3 weeks by comparison with untreated controls (herbicidal activity in percent (%): 100% activity=the plants have died, 0% activity=like control plants, —=not tested). The results of comparative table A show the compounds according to the invention have a higher herbicidal activity than the compounds of the greatest structural similarity known from the closest prior art.

Test [10] concerns Veronica persica. Described as above. The settings on record: 504 h, dosage 320 g/ha, visual assessment after 3 weeks (Table A), read-out: Herbicidal action against VERPE.
Excerpt: as §2

The test system of test [11] is Abutilon theophrasti. Described as above. As to conditions: Abutilon theophrasti, 504 h, read-out: Herbicidal action against ABUTH; for pest or weed control at 320 g/ha: dosage 320 g/ha.
Excerpt: as §2

Test [12] deals with Echinochloa crus galli. Described as above. The settings on record: Echinochloa, 504 h, dosage 320 g/ha, read-out: Herbicidal action against ECHCG.
Excerpt: as §2

Test [13] concerns Amaranthus retroflexus. Described as above. The settings on record: 504 h, dosage 320 g/ha, read-out: Herbicidal action against AMARE.
Excerpt: as §2

Test [14] has as its system Stellaria media. The description is as above. The settings on record: 504 h, read-out: Herbicidal action against STEME.
Excerpt: as §2

The test system of test [15] is Matricaria inodora. The description is as above. The settings on record: Tripleurospermum inodorum, 504 h, dosage 320 g/ha, read-out: Herbicidal action against MATIN.
Excerpt: as §2

The subject of test [16] is VIOTR. Nature of the test: Post-emergence herbicidal action against harmful plants. As to the method: as §1, with “Seeds” for “The abbreviations used in the tables below denote: • ABUTH Abutilon theophrasti • AMARE Amaranthus retroflexus • ECHCG Echinochloa crus galli • PHBPU Phartoitis purpureum • STEME Stellaria media • ALOMY Alopecurus myosuroides • AVEFA Avena fatua • MATIN Matricaria inodora • POLCO Fallopia convolvulus • VERPE Veronica persica 1. Pre-emergence Herbicidal Action Against Harmful Plants Seeds”

Test [17] has as its system SETVI. Description: Pre-emergence herbicidal action against harmful plants. As to conditions: dosage 320 g/ha, visual assessment after 3 weeks (Table C).
Excerpt: as §2, with “Seeds” for “The abbreviations used in the tables below denote: • ABUTH Abutilon theophrasti • AMARE Amaranthus retroflexus • ECHCG Echinochloa crus galli • PHBPU Phartoitis purpureum • STEME Stellaria media • ALOMY Alopecurus myosuroides • AVEFA Avena fatua • MATIN Matricaria inodora • POLCO Fallopia convolvulus • VERPE Veronica persica 1. Pre-emergence Herbicidal Action Against Harmful Plants Seeds”

For test [18], the system named is VIOTR. The test is described as above.
Excerpt: as §2, with “Seeds” for “The abbreviations used in the tables below denote: • ABUTH Abutilon theophrasti • AMARE Amaranthus retroflexus • ECHCG Echinochloa crus galli • PHBPU Phartoitis purpureum • STEME Stellaria media • ALOMY Alopecurus myosuroides • AVEFA Avena fatua • MATIN Matricaria inodora • POLCO Fallopia convolvulus • VERPE Veronica persica 1. Pre-emergence Herbicidal Action Against Harmful Plants Seeds”

Test [19] concerns Phartoitis purpureum. The description is as above. As to conditions: dosage 320 g/ha, visual assessment after 3 weeks (Table C).
Excerpt: as §2

Setting [20] is: dosage 80 g/ha, visual rating after about 3 weeks (Table D).
[21] abbreviates: visual rating after about 3 weeks (Table D).
Setting [22] is: visual assessment after 3 weeks (Table A).
The mark [23] stands for this setting: visual rating after about 3 weeks (Table E).
Where [24] appears, read: visual assessment after 3 weeks (Table C).
Where [25] appears, read: dosage 20 g/ha, visual rating after about 3 weeks (Table F).
Where [26] appears, read: dosage 80 g/ha, visual assessment after 3 weeks (Table B).

Read-outs that look alike come from different tables or passages of the source.

Take `CCN(C)C(=O)COc1c(S(C)(=O)=O)ccc(C(=O)C2=C(O)CCCC2=O)c1Cl` [Compound S7, reference compound]: the pest or weed control at 80 g/ha in test [1] (setting [20]) is 100%; in test [2] it was 90%; in [3] (setting [21]) it was 60%; in [4] (visual rating after about 3 weeks (Table D), read-out: Herbicidal action against PHBPU), 90%; in [5] (setting [20]) it was 70%; in [6] (setting [21]), 10%. Further, the pest or weed control at 80 g/ha in test [7] (setting [20]) worked out at 90%; in test [8] (setting [21]), 80%. In addition, in [9], the “Herbicidal action against AVEFA” value was 0%. Moreover, the pest or weed control at 320 g/ha in [10] came out at 100%; in test [11] (setting [22]), 80%; in test [12] (setting [22]), 80%; in test [13] (setting [22]), 100%; in [14] (dosage 320 g/ha, visual assessment after 3 weeks (Table A)), 90%; in [15] (setting [22]), 100%.

In the case of `CCS(=O)(=O)c1ccc(C(=O)C2=C(O)CCCC2=O)c(Cl)c1OCC(=O)N(C)OC` [Compound S8, reference compound], the “Herbicidal action against VIOTR” value is 80% in test [16] (dosage 80 g/ha, visual rating after about 3 weeks (Table E)) and 20% in [18] (dosage 320 g/ha, visual assessment after 3 weeks (Table C)). Further, the pest or weed control at 80 g/ha in test [3] (setting [23]) was 80%; in test [4] (visual rating after about 3 weeks (Table E), read-out: Herbicidal action against PHPBU), 80%; in test [6] (setting [23]), 80%; in test [8] (setting [23]) it was 60%. Besides, the “Herbicidal action against SETVI” value in test [17] was 50%. Also, the pest or weed control at 320 g/ha in test [11] (setting [24]) amounted to 90%; in test [12] (setting [24]) it was 60%; in [13] (setting [24]), 90%; in test [15] (setting [24]), 90%. Besides, the “Herbicidal action against PHPBU” value in test [19] is given as 70%.

On to `CCS(=O)(=O)c1ccc(C(=O)C2=C(O)CCCC2=O)c(Cl)c1OC(C)C(=O)NC` (stereo not drawn) [Compound S11, reference compound], for which the “Herbicidal action against VIOTR” value in test [16] (setting [25]) was determined as 70%; in test [18] (setting [26]), 40%. Also, the pest or weed control at 20 g/ha in test [1] (setting [25]) is 90%; in [4] (dosage 20 g/ha, visual rating after about 3 weeks (Table F), read-out: Herbicidal action against PHPBU), 70%; in test [5] (setting [25]), 90%; in [7] (setting [25]), 80%; in test [8] (setting [25]) it was 70%. Moreover, the results for the pest or weed control at 80 g/ha in test [11] (setting [26]) and in test [14] (setting [26]) were 70% and 30%, respectively.
